Data reported in paper PMC9538324 (Journal of medical virology, 2022).
Like-named read-outs stand apart in the source and are kept apart here.

What was measured:
A549-ACE2 cells [1] = test: MTT cell viability assay; details: 0.63 μM
SARS-CoV-2 [2] = details: Calu-3 cells; cited from earlier work
Delta PV = type: cell-based, SARS-CoV-2
SARS-CoV-2 [3] = details: A549-ACE2 cells, RT-PCR and plaque assay, Institut Pasteur; cited from earlier work
AXL = details: read-out: IC50 against AXL; cited from earlier work
A549-ACE2 cells [4] = system: A549-ACE2 cells
VSV-G = type: cell-based, Vesicular stomatitis virus
rVSV-EBOV = test: microbe, parasite or virus in culture; type: cell-based, Ebola virus; details: Zaire ebolavirus, A549-ACE2, read-out: EC50 against rVSV-EBOV
Vero cells = details: cited from earlier work
SARS-CoV-2 [5] = details: Vero cells, anti-NP antibody, Mount Sinai; cited from earlier work
SARS-CoV-2 [6] = details: Huh7 cells; cited from earlier work
Omicron PV = type: cell-based, SARS-CoV-2
SARS-CoV-2 [7] = details: Vero cells; cited from earlier work
[8] = system: SARS-CoV-2 (USA-WA1 strain); test: microbe, parasite or virus in culture; type: cell-based; details: Severe acute respiratory syndrome coronavirus 2, A549-ACE2, read-out: EC50 against SARS-CoV-2
SARS-CoV-2 [9] = details: A549-ACE2 cells; cited from earlier work
A549-ACE2 cells [10] = test: cells; details: Homo sapiens, A549-ACE2, read-out: EC50 for PLD induction
in vitro = details: human
Wuhan PV = type: cell-based, SARS-CoV-2
A549-ACE2 cells [11] = details: A549-ACE2 infection assay
[12] = A549-ACE2 cells, compared with amodiaquine

Structure (SMILES) | reduction of cell viability by MTT assay (A549-ACE2 cells [1]) | anti-SARS-CoV-2 activity (SARS-CoV-2 [2]) | Delta PV infection compared to VSV-G (Delta PV) | EC50 (SARS-CoV-2 [3]) [nM] | IC50 (AXL) [nM] | PLD induction (in words) (A549-ACE2 cells [4]; [12]) | VSV-G infection relative to the level in imatinib- or nintedanib-treated cells (VSV-G) | EC50 (rVSV-EBOV) [nM] | CC50 (Vero cells) [nM] | EC50 (SARS-CoV-2 [5]) [nM] | EC50 (SARS-CoV-2 [6]) [nM] | infection inhibition against Omicron PV compared to VSV-G (Omicron PV) | EC50 (SARS-CoV-2 [7]) [nM] | EC50 [8] [nM] | lowest concentration tested showing inhibition of virus replication (SARS-CoV-2 [9]) [µM] | EC50 (A549-ACE2 cells [10]) [nM] | fold induction (in vitro) | Wuhan PV infection compared to VSV-G (Wuhan PV) | PLD induction (in words) (A549-ACE2 cells [4]) | cytotoxicity (in words) (A549-ACE2 cells [11])
CCc1nc(C(N)=O)c(Nc2ccc(N3CCC(N4CCN(C)CC4)CC3)c(OC)c2)nc1NC1CCOCC1 [Gilteritinib, gilteritinib] | approximately 30% | no detectable activity | small decrease | 60 to 120 | 41 | induces a small amount of PLD | around 50% | 250 | 37200 | ~800 | 200 | significant infection inhibition | 6750 | ~100 | 0.5 | 390 | 15 | small decrease | – | –
Cc1ccc(NC(=O)c2ccc(CN3CCN(C)CC3)cc2)cc1Nc1nccc(-c2cccnc2)n1 [Imatinib, imatinib] | – | – | – | – | – | – | – | – | – | – | – | – | – | – | – | – | – | – | strong PLD inducers | –
COC(=O)c1ccc2c(c1)NC(=O)/C2=C(\Nc1ccc(N(C)C(=O)CN2CCN(C)CC2)cc1)c1ccccc1 [Nintedanib, nintedanib] | – | – | – | – | – | strong PLD inducers | – | – | – | – | – | – | – | – | – | – | – | – | – | little cytotoxicity
